Results as given in patent publication EP3495350B1, “COMPOUND INHIBITING FORMATION OF C-MYC/MAX/DNA COMPLEX” (National Cancer Center, priority 2016, dated 2018).

Key:
zebrafish = assay: Cardiotoxicity experiment using zebrafish (heart rate, lethality); format: in vivo; settings: n=10; for Changes in heart rate (%): mean
[1] = Single toxicity test (IV and IP single dose); format: in vivo, Mouse; settings: 40 mg/kg
recombinant c-Myc/Max = assay: Protein assay: electrophoretic mobility shift assay (EMSA) of DNA binding of c-Myc/Max; format: biochemical
Experimental: Recombinant proteins were prepared as described in the following references: K. C. Jung et al., Fatty Acids, Inhibitors for the DNA Binding of c-Myc/Max Dimer, Suppress Proliferation and Induce Apoptosis of Differentiated HL-60 Human Leukemia Cell, Leukemia, 2006, 20(1), 122-7 or Kyung-Chae Jeong et al., Small-Molecule Inhibitors of c-Myc Transcriptional Factor Suppress Proliferation and Induce Apoptosis of Promyelocytic Leukemia Cell via Cell Cycle Arrest, Mol. BioSyst., 2010, 6, 1503-1509.
The inhibitory activity of each candidate compound on DNA binding of recombinant c-Myc/Max was measured using an electrophoretic mobility shift assay (EMSA). The ratio of protein-DNA complexes in each sample was evaluated by measuring band intensity. The oligonucleotides (E-box, 5'-biotin-[…]-3'-biotin) corresponding to the consensus binding site of Myc/Max were dimerized through an annealing process. The protein mixture was incubated at room temperature for 5 minutes, and a DMSO solution containing each candidate compound was added thereto. The mixture was further incubated for 5 minutes, and the biotinylated DNA was added. To achieve a state of equilibrium, the final mixture was incubated at room temperature for 10 minutes. […] Each band was visualized using HRP-conjugated streptavidin and an ECL solution, and band intensity was measured using image analysis software.

MBT-2 = assay: Cell based assay, cell viability (CellTiter-Glo), MBT-2; settings: 72 hours, 0 to 2 µM; read-out: cell based assay cell line 1 MBT-2 IC50
Experimental: (§1) Commercially available bladder cancer cell lines were treated with trypsin-EDTA and seeded in each well of a 96 well plate, followed by incubation for 24 hours. After incubation, candidate compounds were added to each well at a final concentration of 0 to 2 µM. The compound-treated cells were further incubated for 72 hours. Cell viability was measured using an ATP detection method (CellTiter-Glo Luminescent Cell Viability Assay, Promega).
(§2) The selectivity of the compounds of the present disclosure to cancer cells was evaluated in the same manner as described in "2. Cell based assay".

KU19-19 = assay: Cell based assay, cell viability (CellTiter-Glo), KU19-19; settings: Homo sapiens, KU-19-19; 72 hours, 0 to 2 µM; read-out: cell based assay cell line 2 KU19-19 IC50
Experimental: as §1, §2

253J = assay: Cell based assay, cell viability (CellTiter-Glo), 253J; settings: Homo sapiens; 72 hours, 0 to 2 µM; read-out: cell based assay cell line 3 253J IC50
Experimental: as §1, §2

UM-UC-3 = assay: Cell based assay, cell viability (CellTiter-Glo), UM-UC-3; settings: Homo sapiens, UMUC3; 72 hours, 0 to 2 µM; read-out: cell based assay cell line 4 UM-UC-3 IC50
Experimental: as §1, §2

[2] = Cell based assay, cell viability (CellTiter-Glo), RT4 (selectivity); settings: human, rt4 cells; selectivity evaluation, Table 6; benign; read-out: Cytotoxicity (µM) RT4
Experimental: as §1, with “After incubation, candidate compounds were added to each well at a final concentration of 0 to 2 µM.” left out
as §2

| SMILES | IC50 (MBT-2) | IC50 (KU19-19) | IC50 (253J) | IC50 (UM-UC-3) | also measured |
| --- | --- | --- | --- | --- | --- |
| COc1ccc(CCN2CCC(Nc3nc4ccccc4n3Cc3ccc(F)cc3)CC2)cc1 [Astemizole, reference compound] |  |  |  |  | Changes in heart rate (%) (zebrafish; 10 µM): 46.2%; Lethality (zebrafish; 10 µM): 0/10 |
| CC(=O)c1c([S+]([O-])Cc2ccccc2)nc2c(Br)ccc(Cl)c2c1O (centres unmarked) [Compound 4, 3-acetyl-2-(benzylsulfinyl)-8-bromo-5-chloroquinolin-4(1H)-one] | 960 nM | 1050 nM | 1000 nM | 1330 nM | deaths ([1]; IV and IP single-dose administration of 40 mpk): no deaths; General symptoms (feed intake, drinking water intake) ([1]; mouse, in vivo): no abnormal symptoms; Weight changes ([1]; mouse, in vivo): no significant weight changes; Percentage ([1]; mouse, in vivo, ip): 0 (0/2); mortality ([1]; mouse, in vivo, ip): 0%; Percentage ([1]; mouse, in vivo, iv): 0 (0/2); mortality ([1]; mouse, in vivo, iv): 0%; Changes in heart rate (%) (zebrafish; 5 µM): 88.5%; Lethality (zebrafish; 5 µM): 1/10; IC50 (recombinant c-Myc/Max): < 1000 nM; CC50 at 72 h [2]: > 10 µM |
| CC(=O)c1c([S+]([O-])Cc2ccc([N+](=O)[O-])cc2)[nH]c2c(Br)ccc(Cl)c2c1=O (centres unmarked) [Compound 33, 3-acetyl-8-bromo-5-chloro-2-((4-nitrobenzyl)sulfinyl)quinolin-4(1H)-one] | 900 nM | 1420 nM | 1390 nM | 1110 nM | Changes in heart rate (%) (zebrafish; 5 µM): 97.3%; Lethality (zebrafish; 5 µM): 0/10; Note (heart rate inhibition) (zebrafish; 5 µM): No significant heart rate inhibition; CC50 at 72 h [2]: > 10 µM |
| CC(=O)c1c(S(=O)(=O)Cc2ccccc2)nc2c(Br)ccc(Cl)c2c1O [Compound 54, 1-(2-(benzylsulfonyl)-8-bromo-5-chloro-4-hydroxyquinolin-3-yl)ethan-1-one] | > 2000 nM | > 2000 nM | > 2000 nM | > 2000 nM | IC50 (recombinant c-Myc/Max): < 1000 nM |
| CC(=O)c1c([S+]([O-])Cc2ccc(NS(C)(=O)=O)cc2)[nH]c2c(Br)ccc(Cl)c2c1=O (centres unmarked) [Compound 103, N-(4-(((3-acetyl-8-bromo-5-chloro-4-oxo-1,4-dihydroquinolin-2-yl)sulfinyl)methyl)phenyl)methanesulfonamide] | > 2000 nM | > 2000 nM | > 2000 nM | > 2000 nM |  |
| CC(=O)c1c([S+]([O-])Cc2ccc(Cl)nc2)[nH]c2c(Br)ccc(Cl)c2c1=O (centres unmarked) [Compound 104, 3-acetyl-8-bromo-5-chloro-2-(((6-chloropyridin-3-yl)methyl)sulfinyl)quinolin-4(1H)-one] | 710 nM | 1500 nM | 870 nM | 1130 nM |  |
| COCCNc1ccc(C[S+]([O-])c2[nH]c3c(Br)ccc(Cl)c3c(=O)c2C(C)=O)cn1 (centres unmarked) [Compound 105, 3-acetyl-8-bromo-5-chloro-2-(((6-((2-methoxyethyl)amino)pyridin-3-yl)methyl)sulfinyl)quinolin-4(1H)-one] | > 2000 nM | > 2000 nM | > 2000 nM | > 2000 nM |  |
| CC(=O)c1c([S+]([O-])Cc2nonc2C)[nH]c2c(Br)ccc(Cl)c2c1=O (centres unmarked) [Compound 106, 3-acetyl-8-bromo-5-chloro-2-(((4-methyl-1,2,5-oxadiazol-3-yl)methyl)sulfinyl)quinolin-4(1H)-one] | > 2000 nM | > 2000 nM | > 2000 nM | > 2000 nM |  |
| CC(=O)c1c([S+]([O-])Cc2cnc3[nH]ccc3c2)[nH]c2c(Br)ccc(Cl)c2c1=O (centres unmarked) [Compound 107, 2-(((1H-pyrrolo[2,3-b]pyridin-5-yl)methyl)sulfinyl)-3-acetyl-8-bromo-5-chloroquinolin-4(1H)-one] | > 2000 nM | > 2000 nM | > 2000 nM | > 2000 nM |  |
